US10821115B2, “Compounds that inhibit Mcl-1 protein” (priority 2017, dated 2020)
Read-outs that look alike come from different tables or passages of the source.

Columns and labels:
[1] = biological target: recombinant human Mcl-1 (residues 171-327) / Bim interaction (Homo sapiens (Human), UniProt Q07820); experiment: biochemical; type: binding; settings: read-out: Mcl-1 HTRF IC50
[2] = tested on: human multiple myeloma cell line, OPM-2; experiment: Cell viability assay (OPM-2 10 FBS), CellTiter-Glo; type: cell-based
Method in brief: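 Cells were seeded at 3000 cells/well in RPMI 1640 with 10% FBS and exposed to serially diluted compounds for 16 h at 37 °C, 5% CO2.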

[3] = 0.1 nM Mcl-1(171-327), 0.05 nM biotin-Bim (51-76)
[4] = Homo sapiens, OPM-2, 16 h, read-out: OPM-2 10% FBS IC50 IP, OPM-2 cells, 10% FBS, 16 h incubation
[5] = TR-FRET, Mcl-1(171-327) / biotin-Bim (51-76)
[6] = Homo sapiens, OPM-2, 16 h, read-out: OPM-2 10% FBS IC50 IP, OPM-2 cells, 10% FBS, 16 h, CellTiter-Glo

Sequence of recombinant human Mcl-1 (residues 171-327) / Bim interaction (Q07820 171-327): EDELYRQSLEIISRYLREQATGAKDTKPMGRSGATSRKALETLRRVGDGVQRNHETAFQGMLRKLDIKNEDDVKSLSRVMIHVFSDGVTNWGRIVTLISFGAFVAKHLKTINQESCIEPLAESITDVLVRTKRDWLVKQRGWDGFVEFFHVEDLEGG

Structure (SMILES)	IC50 [1, 3] [nM]	IC50 [2, 4] [nM]	IC50 [1, 5] [nM]	IC50 ([2]; read-out: OPM-2 10% FBS IC50 IP, OPM-2 cells, 10% FBS, 16 h, CellTiter-Glo) [nM]	IC50 [2, 6] [nM]
CO[C@@]1(CN2CCN(CC3COC3)CC2)/C=C/C[C@H](C)[C@@H](C)S(=O)(=O)NC(=O)c2ccc3c(c2)N(C[C@@H]2CC[C@H]21)C[C@@]1(CCCc2cc(Cl)ccc21)CO3 [Example 313, (1S,3′R,6′R,7′S,8′E,11′S,12′R)-6-chloro-7′-methoxy-11′,12′-dimethyl-7′-((4-(3-oxetanylmethyl)-1-piperazinyl)methyl)-3,4-dihydro-2H,15′H-spiro[naphthalene-1,22′-[20]oxa[13]thia[1,14]diazatetracyclo [14.7.2.0~3,6~.0~19,24~]pentacosa[8,16,18,24]tetraen]-15′-one 13′,13′-dioxide]	0.225	131			
C[C@@H]1[C@@H](C)C/C=C/[C@@](O)(CC(=O)N2CCCCC2)[C@@H]2CC[C@H]2CN2C[C@@]3(CCCc4cc(Cl)ccc43)COc3ccc(cc32)C(=O)NS1(=O)=O [Example 100257, (1S,3′R,6′R,7′S,8′E,11′S,12′R)-6-chloro-7′-hydroxy-11′,12′-dimethyl-7′-(2-oxo-2-(1-piperidinyl)ethyl)-3,4-dihydro-2H,15′H-spiro[naphthalene-1,22′-[20]oxa[13]thia[1,14]diazatetracyclo [14.7.2.0~3,6~.0~19,24~]pentacosa[8,16,18,24]tetraen]-15′-one 13′,13′-dioxide]			0.18	80	
CCN1CCN(C[C@@]2(OC)/C=C/C[C@H](C)[C@@H](C)S(=O)(=O)NC(=O)c3ccc4c(c3)N(C[C@@H]3CC[C@H]32)C[C@@]2(CCCc3cc(Cl)ccc32)CO4)CC1 [Example 88, (1S,3′R,6′R,7′R,8′E,11′S,12′R)-6-chloro-7′-((4-ethyl-1-piperazinyl)methyl)-7′-methoxy-11′,12′-dimethyl-3,4-dihydro-2H,15′H-spiro[naphthalene-1,22′-[20]oxa[13]thia[1,14]diazatetracyclo [14.7.2.0~3,6~.0~19,24~]pentacosa[8,16,18,24]tetraen]-15′-one 13′,13′-dioxide]	0.139	74			
CO[C@]1(CCN2CCCCC2)/C=C/C[C@H](C)[C@@H](C)S(=O)(=O)NC(=O)c2ccc3c(c2)N(C[C@@H]2CC[C@H]21)C[C@@]1(CCCc2cc(Cl)ccc21)CO3 [Example 100449, (1S,3′R,6′R,7′R,8′E,11′S,12′R)-6-chloro-7′-methoxy-11′,12′-dimethyl-7′-(2-(1-piperidinyl)ethyl)-3,4-dihydro-2H,15′H-spiro[naphthalene-1,22′-[20]oxa[13]thia[1,14]diazatetracyclo [14.7.2.0~3,6~.0~19,24~]pentacosa[8,16,18,24]tetraen]-15′-one 13′,13′-dioxide]			0.071		171
CO[C@@]1(CN2CC(N3CCOCC3)C2)/C=C/C[C@H](C)[C@@H](C)S(=O)(=O)NC(=O)c2ccc3c(c2)N(C[C@@H]2CC[C@H]21)C[C@@]1(CCCc2cc(Cl)ccc21)CO3 [Example 258, (1S,3′R,6′R,7′S,8′E,11′S,12′R)-6-chloro-7′-methoxy-11′,12′-dimethyl-7′-((3-(4-morpholinyl)-1-azetidinyl)methyl)-3,4-dihydro-2H,15′H-spiro[naphthalene-1,22′-[20]oxa[13]thia[1,14]diazatetracyclo [14.7.2.0~3,6~.0~19,24~]pentacosa[8,16,18,24]tetraen]-15′-one 13′,13′-dioxide]	0.069	95			
Cc1cc(C[C@@]2(O)/C=C/C[C@H](C)[C@@H](C)S(=O)(=O)NC(=O)c3ccc4c(c3)N(C[C@@H]3CC[C@H]32)C[C@@]2(CCCc3cc(Cl)ccc32)CO4)no1 [Example 100540, (1S,3′R,6′R,7′R,8′E,11′S,12′R)-6-chloro-7′-hydroxy-11′,12′-dimethyl-7′-((5-methyl-1,2-oxazol-3-yl)methyl)-3,4-dihydro-2H,15′H-spiro[naphthalene-1,22′-[20]oxa[13]thia[1,14]diazatetracyclo [14.7.2.0~3,6~.0~19,24~]pentacosa[8,16,18,24]tetraen]-15′-one 13′,13′-dioxide]			0.275		320
CO[C@@H](C[C@]1(OC)/C=C/C[C@H](C)[C@@H](C)S(=O)(=O)NC(=O)c2ccc3c(c2)N(C[C@@H]2CC[C@H]21)C[C@@]1(CCCc2cc(Cl)ccc21)CO3)C1CC1 [Example 100462, (1S,3′R,6′R,7′S,8′E,11′S,12′R)-6-chloro-7′-((2S)-2-cyclopropyl-2-methoxyethyl)-7′-methoxy-11′,12′-dimethyl-3,4-dihydro-2H,15′H-spiro[naphthalene-1,22′-[20]oxa[13]thia[1,14]diazatetracyclo [14.7.2.0~3,6~.0~19,24~]pentacosa[8,16,18,24]tetraen]-15′-one 13′,13′-dioxide]			0.304		652
CO[C@@]1(CN(C)C)/C=C/C[C@H](C)[C@@H](C)S(=O)(=O)NC(=O)c2ccc3c(c2)N(C[C@@H]2CC[C@H]21)C[C@@]1(CCCc2cc(Cl)ccc21)CO3 [Example 66, (1S,3′R,6′R,7′S,8′E,11′S,12′R)-6-chloro-7′-((dimethylamino)methyl)-7′-methoxy-11′,12′-dimethyl-3,4-dihydro-2H,15′H-spiro[naphthalene-1,22′-[20]oxa[13]thia[1,14]diazatetracyclo [14.7.2.0~3,6~.0~19,24~]pentacosa[8,16,18,24]tetraen]-15′-one 13′,13′-dioxide]	0.246	318			
CO[C@@H](C(=O)N(C)C)[C@@]1(O)/C=C/C[C@H](C)[C@@H](C)S(=O)(=O)NC(=O)c2ccc3c(c2)N(C[C@@H]2CC[C@H]21)C[C@@]1(CCCc2cc(Cl)ccc21)CO3 [Example 100286, (2R)-2-((1S,3′R,6′R,7′R,8′E,11′S,12′R)-6-chloro-7′-hydroxy-11′,12′-dimethyl-13′,13′-dioxido-15′-oxo-3,4-dihydro-2H-spiro[naphthalene-1,22′-[20]oxa[13]thia[1,14]diazatetracyclo [14.7.2.0~3,6~.0~19,24~]pentacosa[8,16,18,24]tetraen]-7′-yl)-2-methoxy-N,N-dimethylethanamide]			0.471		1580
Cc1nc([C@]2(O)/C=C/C[C@H](C)[C@@H](C)S(=O)(=O)NC(=O)c3ccc4c(c3)N(C[C@@H]3CC[C@H]32)C[C@@]2(CCCc3cc(Cl)ccc32)CO4)cs1 [Example 100516, (1S,3′R,6′R,7′S,8′E,11′S,12′R)-6-chloro-7′-hydroxy-11′,12′-dimethyl-7′-(2-methyl-1,3-thiazol-4-yl)-3,4-dihydro-2H,15′H-spiro[naphthalene-1,22′-[20]oxa[13]thia[1,14]diazatetracyclo [14.7.2.0~3,6~.0~19,24~]pentacosa[8,16,18,24]tetraen]-15′-one 13′,13′-dioxide]			3.36		1900
C[C@@H]1[C@@H](C)CCC[C@@]2(COCCN2)[C@@H]2CC[C@H]2CN2C[C@@]3(CCCc4cc(Cl)ccc43)COc3ccc(cc32)C(=O)NS1(=O)=O [Example 100269, (1S,3′R,6′R,7′S,11′S,12′R)-6-chloro-11′,12′-dimethyl-3,4-dihydro-2H,15′H-dispiro[naphthalene-1,22′-[20]oxa[13]thia[1,14]diazatetracyclo [14.7.2.0~3,6~.0~19,24~]pentacosa[16,18,24]triene-7′,3″-[1,4]oxazinan]-15′-one 13′,13′-dioxide]			0.908		1230
